Measured values published in patent US10219516B2, “Molecules having pesticidal utility, and intermediates, compositions, and processes, related thereto” (priority 2015, dated 2019).
Where two headings read alike, the source gives them in different places.

What was measured:
Type in all cases: in vivo
[1] = tested on: Beet Armyworm (Spodoptera exigua, LAPHEG); assay: Bioassay on Beet Armyworm (BAW), 128-well diet tray assay
Procedure, shortened: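 Second instar larvae were exposed to diet treated at 50 μg/cm^2 for five to seven days at 25° C.; mortality was averaged over eight wells.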

[2] = tested on: Cabbage Looper (Trichoplusia ni, TRIPNI); assay: Bioassay on Cabbage Looper (CL), 128-well diet tray assay; details: Trichoplusia ni
Procedure, shortened: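 Test molecule is dissolved in 90:10 acetone-water and applied at 50 μg/cm^2 onto artificial diet, then dried. One to five second-instar larvae go into each of eight wells. Trays, sealed but vented, stay at 25° C., 14:10 light-dark, five to seven days, after which mortality is averaged.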

[3] = tested on: Yellow Fever Mosquito (Aedes aegypti, AEDSAE); assay: Bioassay on Yellow Fever Mosquito (YFM), 96-well plate larval assay; details: for YFM (Biological Results, rating): Species YFM (Yellow Fever Mosquito); for YFM rating: Yellow Fever Mosquito, 96-well plate larval assay
Procedure, shortened: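 Aedes aegypti larvae (about 1 day old) in liver-powder water were added to plates dispensed from DMSO master plates (4000 ppm stock) diluted with 90:10 water/acetone; six replicate plates per master. Lidded plates were held at room temperature for 3 days, then each well was scored for mortality.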

[4] = Species BAW (Beet Armyworm), read-out: BAW (Biological Results, rating)
[5] = Species CL (Cabbage Looper), read-out: CL (Biological Results, rating)
[6] = Beet Armyworm, 128-well diet tray assay, read-out: BAW rating
[7] = Cabbage Looper, 128-well diet tray assay, read-out: CL rating

Row | SMILES | pest or weed control at 50 µg/cm2 [1, 4] | pest or weed control at 50 µg/cm2 [2, 5] | YFM (Biological Results, rating) [3] | pest or weed control at 50 µg/cm2 [1, 6] | pest or weed control at 50 µg/cm2 [2, 7] | YFM rating [3]
1 | Nc1cncc(NC(=O)c2cc(NC(=O)[C@H]3[C@H](c4cc(Cl)cc(Cl)c4)C3(Cl)Cl)ccc2Cl)c1 [F362, N-(5-aminopyridin-3-yl)-2-chloro-5-((1R,3R)-2,2-dichloro-3-(3,5-dichlorophenyl)cyclopropane-1-carboxamido)benzamide] | 50 to 100% | 50 to 100% | A (80-100) |  |  | 
2 | Nc1cncc(NC(=O)c2cc(NC(=O)[C@H]3[C@H](c4ccc(Cl)c(Cl)c4)C3(Cl)Cl)ccc2Cl)c1 [F363, N-(5-Aminopyridin-3-yl)-2-chloro-5-((1R,3R)-2,2-dichloro-3-(3,4-dichlorophenyl)cyclopropane-1-carboxamido)benzamide] | 50 to 100% | 50 to 100% | A (80-100) |  |  | 
3 | O=C(Nc1ccnc(Cl)c1)c1cc(NC(=O)[C@H]2[C@H](c3cc(Cl)cc(Cl)c3)C2(Cl)Cl)ccc1Cl [F368, 2-Chloro-N-(2-chloropyridin-4-yl)-5-((1R,3R)-2,2-dichloro-3-(3,5-dichlorophenyl)cyclopropane-1-carboxamido)benzamide] | 50 to 100% | 50 to 100% | A (80-100) |  |  | 
4 | O=C(Nc1ccnc(Cl)c1)c1cc(NC(=O)[C@H]2[C@H](c3ccc(Cl)c(Cl)c3)C2(Cl)Cl)ccc1Cl [F369, 2-Chloro-N-(2-chloropyridin-4-yl)-5-((1R,3R)-2,2-dichloro-3-(3,4-dichlorophenyl)cyclopropane-1-carboxamido)benzamide] | 50 to 100% | 50 to 100% | A (80-100) |  |  | 
5 | Nc1c(F)cnc(NC(=O)c2cc(NC(=O)[C@H]3[C@H](c4cc(Cl)cc(Cl)c4)C3(Cl)Cl)ccc2Cl)c1F [F370, N-(4-Amino-3,5-difluoropyridin-2-yl)-2-chloro-5-((1R,3R)-2,2-dichloro-3-(3,5-dichlorophenyl)cyclopropane-1-carboxamido)benzamide] | 50 to 100% | 50 to 100% | A (80-100) |  |  | 
6 | Nc1c(F)cnc(NC(=O)c2cc(NC(=O)[C@H]3[C@H](c4ccc(Cl)c(Cl)c4)C3(Cl)Cl)ccc2Cl)c1F [F371, N-(4-Amino-3,5-difluoropyridin-2-yl)-2-chloro-5-((1R,3R)-2,2-dichloro-3-(3,4-dichlorophenyl)cyclopropane-1-carboxamido)benzamide] | 50 to 100% | 50 to 100% | A (80-100) |  |  | 
7 | Nc1c(F)cnc(NC(=O)c2cc(NC(=O)[C@H]3[C@H](c4cc(Cl)c(Cl)c(Cl)c4)C3(Cl)Cl)ccc2Cl)c1F [F372, N-(4-Amino-3,5-difluoropyridin-2-yl)-2-chloro-5-((1R,3R)-2,2-dichloro-3-(3,4,5-trichlorophenyl)cyclopropane-1-carboxamido)benzamide] | 50 to 100% | 50 to 100% | A (80-100) |  |  | 
8 | Nc1ccc(F)cc1NC(=O)c1cc(NC(=O)[C@H]2[C@H](c3cc(Cl)cc(Cl)c3)C2(Cl)Cl)ccc1Cl [F373, N-(2-Amino-5-fluorophenyl)-2-chloro-5-((1R,3R)-2,2-dichloro-3-(3,5-dichlorophenyl)cyclopropane-1-carboxamido)benzamide] |  |  |  | 50 to 100% | 50 to 100% | A (80-100)
9 | Nc1c(F)cc(F)cc1NC(=O)c1cc(NC(=O)[C@H]2[C@H](c3ccc(Cl)c(Cl)c3)C2(Cl)Cl)ccc1Cl [F377, N-(2-Amino-3,5-difluorophenyl)-2-chloro-5-((1R,3R)-2,2-dichloro-3-(3,4-dichlorophenyl)cyclopropane-1-carboxamido)benzamide] |  |  |  | 50 to 100% | 50 to 100% | A (80-100)
